Measured values as given in patent US7968601B2, “Adamantyl acetamides as 11-β hydroxysteroid dehydrogenase inhibitors” (Janssen Pharmaceutica N.V., priority 2002, dated 2011).
Counter-ions that a name gives are not always drawn.

How the values were obtained:
11b-HSD1 [1] = target: 11b-HSD1 (Homo sapiens, UniProt P28845); assay: Enzymatic assay, 11b-HSD1 reductase activity (conversion of cortisone into cortisol); type: biochemical; settings: pIC50 scored 1-3, read-out: [C1] HSD1-prot Reduct Score
Chain of 11b-HSD1 (Homo sapiens, UniProt P28845) (P28845 whole entry): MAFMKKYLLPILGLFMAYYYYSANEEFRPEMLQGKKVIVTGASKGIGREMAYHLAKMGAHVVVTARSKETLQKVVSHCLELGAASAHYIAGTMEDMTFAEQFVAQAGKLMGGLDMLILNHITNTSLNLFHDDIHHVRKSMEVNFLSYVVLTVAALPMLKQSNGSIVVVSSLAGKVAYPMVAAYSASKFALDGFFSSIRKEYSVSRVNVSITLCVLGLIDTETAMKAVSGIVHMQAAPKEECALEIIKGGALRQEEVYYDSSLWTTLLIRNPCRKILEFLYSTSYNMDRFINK
Experimental: The effects of compounds on 11b-HSD1 dependent conversion of cortisone into cortisol (reductase activity) was studied in a reaction mixture containing 30 mM Tris-HCl buffer pH 7.2, 180 μM NADPH, 1 mM EDTA, 2 μM cortisone, 1 μl drug and/or solvent and 11 μg recombinant protein in a final volume of 100 μl.
(§1) All incubations were performed for 45 min at 37 C in a water bath. The reaction was stopped by adding 100 μl acetonitrile containing 20 μg corticosterone as internal standard. After centrifugation, the product formation was analysed in the supernatant by HPLC on a Hypersyl BDS-C18 column using 0.05 mM ammonium acetate/methanol (50/50) as solvent. In all of the aforementioned assays, the drugs to be tested were taken from a stock solution and tested at a final concentration ranging from […] to 3.10^−9M. From the thus obtained dose response curves, the pIC50 value was calculated and scored as follows; Score 1=pIC50 value<5, Score 2=pIC50 value in the range of 5 to 6, Score 3=pIC50 value>6. (in this table NT stands for Not Tested).

11b-HSD2 [2] = target: T1, 11b-HSD2 (Homo sapiens, UniProt P80365); assay: Enzymatic assay, 11b-HSD2 dependent dehydrogenase activity; type: biochemical; settings: 11b-HSD2 dehydrogenase activity, pIC50 scored 1-3, read-out: [C1] HSD2 prot Dehydro Score
T1 sequence (P80365 1-405): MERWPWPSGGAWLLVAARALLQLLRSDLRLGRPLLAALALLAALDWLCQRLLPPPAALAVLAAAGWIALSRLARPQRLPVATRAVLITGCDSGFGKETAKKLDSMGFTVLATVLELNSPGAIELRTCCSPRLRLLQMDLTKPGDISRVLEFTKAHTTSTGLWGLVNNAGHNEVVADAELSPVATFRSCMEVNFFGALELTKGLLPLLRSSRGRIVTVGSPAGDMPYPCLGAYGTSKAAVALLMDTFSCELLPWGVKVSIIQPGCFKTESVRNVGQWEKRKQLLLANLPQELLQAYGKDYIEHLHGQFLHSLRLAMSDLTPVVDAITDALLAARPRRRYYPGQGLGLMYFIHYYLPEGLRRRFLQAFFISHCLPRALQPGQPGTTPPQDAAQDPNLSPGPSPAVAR
Experimental: The effects on the 11b-HSD2 dependent dehydrogenase activity was studied in a reaction mixture containing 0.1M sodium phosphate buffer pH 7.5, 300 μM NAD, 100 nM cortisol (of which 2 nM is 3H-radio labelled), 1 μl drug and/or solvent and 2.5 μg recombinant protein in a final volume of 100 μl.
as §1

11b-HSD1 [3] = target: T2, 11b-HSD1 (Mus musculus, UniProt P50172); assay: Cellular assay, 11b-HSD1 activity in differentiated 3T3-L1 cells; type: cell-based; settings: 4 hour pre-incubation, pIC50 scored 1-3, read-out: [C2] HSD1 cellular 3T3-L1 Score
T2 construct: endogenous in cells; host or cells: 3T3-L1 (ATCC-CL-173), differentiated into adipocytes
T2 sequence (P50172 whole entry): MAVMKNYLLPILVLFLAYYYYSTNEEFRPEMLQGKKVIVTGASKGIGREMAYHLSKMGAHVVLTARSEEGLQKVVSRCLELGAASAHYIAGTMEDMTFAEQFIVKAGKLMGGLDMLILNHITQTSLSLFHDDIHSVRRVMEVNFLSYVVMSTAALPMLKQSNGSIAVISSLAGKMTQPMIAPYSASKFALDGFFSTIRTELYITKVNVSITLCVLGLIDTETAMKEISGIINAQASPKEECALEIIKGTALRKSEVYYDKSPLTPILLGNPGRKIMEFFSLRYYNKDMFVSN
Experimental: The effects on 11b-HSD1 activity was measured in differentiated 3T3-L1 cells and rat hepatocytes.
Mouse fibroblast 3T3-L1 cells (ATCC-CL-173) were seeded at a density of 16500 cells/ml in 12 well plates and grown for 7 days in DMEM medium (supplemented with 10% heat inactivated foetal calf serum, 2 mM glutamine and 25 mg gentamycin) at 37 C in a humidified 5% CO2 atmosphere. Medium was refreshed twice a week. Fibroblasts were differentiated into adipocytes at 37 C in a 5% CO2 humidified atmosphere in growth medium containing 2 μg/ml insulin, 55 μg/ml IBMX and 39.2 μg/ml dexamethasone.
Following a 4 hour pre-incubation with test compound, 0.5 μCi ^3H-cortisone or dehydrocorticosterone, was added to the cultures. One hour later, the medium was extracted on Extrelut^3-columns with 15 ml diethyl ether and the extract was analysed by HPLC as described above.
(§2) As for the enzymatic assays, the compounds to be tested were taken from a stock solution and tested at a final concentration ranging from […] to 3.10^−9M. From the thus obtained dose response curves, the pIC50 value was calculated and scored as follows; Score 1=pIC50 value<5, Score 2=pIC50 value in the range of 5 to 6, Score 3=pIC50 value>6. (in this table NT stands for Not Tested).

11b-HSD2 [4] = target: T1, 11b-HSD2; assay: Cellular assay, 11b-HSD2 activity in HepG2 cells; type: cell-based; set-up: endogenous in cells; host or cells: HepG2 (ATCC HB-8065); settings: 4 hour pre-incubation, pIC50 scored 1-3, read-out: [C2] HSD2 cellular HepG2 Score
Experimental: The effects on 11b-HSD2 activity was studied in HepG2 and LCC-PK1-cells HepG2-cells (ATCC HB-8065) were seeded in 12 well plates at a density of 100,000 cells/ml and grown at 37 C in a humidified 5% CO2 atmosphere in MEM-Rega-3 medium supplemented with 10% heat inactivated foetal calf serum, 2 mM L-glutamine and sodium bicarbonate). Medium was refreshed twice a week. Pig kidney cells (LCC-PK1, ATCC CRL-1392) were seeded at a density of 150,000 cells/ml in 12 well plates and grown at 37 C in a humidified 5% CO2 atmosphere in Medium 199 supplemented with Earls modified salt solution, 100 U/ml penicillin, 100 μg/ml streptomycin and 10% foetal calf serum. Medium was refreshed twice a week. Twenty four hours prior to the onset of the experiment, medium was changed by medium containing 10% charcoal stripped foetal calf serum.
Following a 4 hour pre-incubation with test compound, 0.5 μCi ^3H-cortisol or corticosterone, was added to the cultures. One hour later, the medium was extracted on Extrelut^3-columns with 15 ml diethyl ether and the extract was analysed by HPLC as described above.
as §2

melting point [°C]	IC50 (11b-HSD1 [1]) [nM]	IC50 (11b-HSD2 [2]) [µM]	IC50 (11b-HSD1 [3]) [nM]	IC50 (11b-HSD2 [4]) [µM]	SMILES
185 to 188					O=C(N[C@@H]1[C@@H]2CC3C[C@H]1C[C@](O)(C3)C2)N1CCCc2ccccc21 [Compound 219]
165 to 170					CN1CCN(CCOc2cccc(C(C)(C)C(=O)NC3C4CC5CC(C4)CC3C5)c2)CC1 (stereo not drawn) [Compound 199]
105 to 107					COc1cccc(C(C)(C)C(=O)N[C@H]2[C@@H]3CC4C[C@H]2C[C@](F)(C4)C3)c1 [Compound 189]
163 to 165					O=C(NC1C2CC3CC(C2)CC1C3)N1CCCc2ccccc21 (stereo not drawn) [Compound 200]
208 to 210					CC(C)(C(=O)N[C@H]1[C@@H]2CC3C[C@H]1C[C@](F)(C3)C2)c1cccc(OCCN2CCOCC2)c1 (as salt: HCl) [Compound 228]
115 to 117					Cc1cccc(C(C)(C)C(=O)N[C@H]2[C@@H]3CC4C[C@H]2C[C@](F)(C4)C3)c1 [Compound 187]
155 to 160					CC(C)(C(=O)N[C@H]1[C@@H]2CC3C[C@H]1C[C@](O)(C3)C2)c1cccc(OCCN2CCOCC2)c1 (as salt: HCl) [Compound 158]
182 to 184					O=C(N[C@H]1[C@@H]2CC3C[C@H]1C[C@](F)(C3)C2)N1CCCc2ccccc21 [Compound 226]
210 to 215					CC(C)(C(=O)N[C@H]1[C@@H]2CC3C[C@H]1C[C@](F)(C3)C2)c1cccc(OCC(=O)O)c1 [Compound 227]
	< 1000	> 10	< 1000	> 10	O=C(NC1C2CC3CC(C2)CC1C3)C1CCOc2ccccc21 (stereo not drawn) [Compound 167]
	> 10000	> 10	< 1000	> 10	CC(C)(C(=O)NC1C2CC3CC(C2)CC1(O)C3)c1ccccc1 (stereo not drawn) [Compound 91]
	> 10000	> 10	< 1000	> 10	CC(C)(C(=O)NC1C2CC3CC(C2)CC1C3)c1ccc(F)cc1F (stereo not drawn) [Compound 87]
110 to 112					COc1cccc(C(C)(C)C(=O)N[C@@H]2[C@@H]3CC4C[C@H]2C[C@](F)(C4)C3)c1 [Compound 188]
	1000 to 10000	> 10	< 1000	> 10	CC(C)(C(=O)N[C@@H]1[C@@H]2CC3C[C@H]1C[C@@](O)(C3)C2)c1cccc(CCC(=O)O)c1 [Compound 242]
	< 1000	> 10	< 1000	> 10	CC(C)(C(=O)NC1C2CC3CC(C2)CC1C3)c1cccnc1 (stereo not drawn) [Compound 128]
	< 1000	> 10	1000 to 10000	> 10	COC(C(=O)NC1C2CC3CC(C2)CC1C3)c1ccccc1 (stereo not drawn) [Compound 43]
215 to 220					O=C(O)COc1cccc2c1CCN(C(=O)NC1C3CC4CC(C3)CC1C4)C2 (stereo not drawn) [Compound 257]
	1000 to 10000	> 10	< 1000	> 10	CC(=Cc1ccccc1)C(=O)NC1C2CC3CC(C2)CC1C3 (stereo not drawn) [Compound 151]
	< 1000	> 10	< 1000	> 10	O=C(O)CCc1cccc2c1CCCC2C(=O)N[C@H]1[C@@H]2CC3C[C@H]1C[C@](F)(C3)C2 (stereo partly drawn) [Compound 258]
165 to 167					COc1cccc(C(C)(C)C(=O)N[C@@H]2[C@@H]3CC4C[C@H]2C[C@](O)(C4)C3)c1 [Compound 155]
	1000 to 10000	> 10	< 1000	> 10	CC(C)(C(=O)NC1C2CC3CC(C2)CC1C3)c1cccc(OCC(=O)O)c1 (stereo not drawn) [Compound 6]
	> 10000	> 10	< 1000	> 10	CC(C)(C(=O)NC1C2CC3CC(C2)CC1C3)c1cccc(/C=C/C(=O)OCc2ccccc2)c1 (stereo not drawn) [Compound 198]
170 to 172					O=C(N[C@H]1[C@@H]2CC3C[C@H]1C[C@](O)(C3)C2)N1CCCc2ccccc21 [Compound 218]
	< 1000	> 10	< 1000	> 10	Cc1cc(CCC(=O)N2CCOCC2)cc(C(C)(C)C(=O)N[C@H]2[C@@H]3CC4C[C@H]2C[C@](O)(C4)C3)c1 [Compound 248]
	< 1000	> 10	< 1000	> 10	CCCc1cccc(C(C)(C)C(=O)NC2C3CC4CC(C3)CC2C4)c1 (stereo not drawn) [Compound 166]
	< 1000	> 10	< 1000	> 10	O=C(NC1C2CC3CC(C2)CC1C3)C1=CCOc2ccccc21 (stereo not drawn) [Compound 162]
	> 10000	> 10	< 1000	> 10	CC(C)(C(=O)NC1C2CC3CC(C2)CC1C3)c1ccc2ccccc2c1 (stereo not drawn) [Compound 138]
	> 10000	> 10	< 1000	> 10	CC(C)(C(=O)NC1C2CC3CC(C2)CC1C3)c1ccc(OCCN2CCOCC2)cc1 (stereo not drawn) [Compound 73]
145 to 147					O=C(NC1C2CC3CC(C2)CC1C3)N1CCc2ccccc2C1 (stereo not drawn) [Compound 201]
	< 1000	> 10	< 1000	> 10	CC(C)(C(=O)NC1C2CC3CC(C2)CC1C3)c1cccc(O)c1 (stereo not drawn) [Compound 5]
